Test [1] deals with T1, fl-NCoR1 (Homo sapiens, UniProt O75376).
T1 construct: (N-terminal FLAG-tagged; AA 1-2440); FLAG (N); purchased Abcam ab82239
The experiment in a line: SPR binding of TasQ to immobilized fl-NCoR1. The note with it: compound in solution. Here is the method:
(§1) Surface Plasmon Resonance (SPR) Binding Analysis. SPR analysis was performed on the Biacore 3000™ system using CM5 sensor chips, certified buffers (HBS-P—10 mM HEPES, 0.15 M NaCl, pH 7.4, containing 0.005% v/v Surfactant P; HBS-EP-HBS-P with 3 mM EDTA) and reagents for immobilization and surface regeneration from Biacore, GE Healthcare, Uppsala Sweden. Evaluation of sensorgrams was performed using the BIA-evaluation Software version 4.1 and GraphPad Prism 4. Buffer of protein reagents were changed to HBS-P on Zeba spin desalting columns (Thermo Scientific) prior to being used in SPR analysis (Isaacs 2013).
B. Binding of TasQ to immobilized HDAC4 and NCoR1. Different variants of HDAC4 (full-length wild-type and mutant forms and the truncated protein) and full-length NCoR1 were immobilized on a CM5 chip using random amine coupling. Briefly, proteins were dissolved in 10 mM sodium acetate buffer at pH 5.0 or 5.5 and immobilized to the aimed level using the standard protocol from GE Healthcare. Serially diluted TasQ in HBS-P buffer with 10 or 20 μM Zn was injected (for 2 or 3 min at a flow rate of 30 μl/min) either directly or after a 1st injection of 1 mM DTT to reduce cysteines in the zinc conformation site in HDAC4. Regeneration was made with a short pulse of HBS-EP.
Thus, TasQ's inhibition of HDAC4/NCoR1 formation involves only its binding to HDAC4. […]

The target of test [2] is T2, HDAC4-NCoR1 complex (Homo sapiens, UniProt P56524).
T2 construct: Full-length (fl) [A.A. 1-1082] recombinant human histone deacetylase 4 (rhHDAC4) protein; FLAG (N); GST (given as 'with or without'); host or cells: HEK293-T (HDAC4)
T2 sequence (P56524 whole entry, one chain of several): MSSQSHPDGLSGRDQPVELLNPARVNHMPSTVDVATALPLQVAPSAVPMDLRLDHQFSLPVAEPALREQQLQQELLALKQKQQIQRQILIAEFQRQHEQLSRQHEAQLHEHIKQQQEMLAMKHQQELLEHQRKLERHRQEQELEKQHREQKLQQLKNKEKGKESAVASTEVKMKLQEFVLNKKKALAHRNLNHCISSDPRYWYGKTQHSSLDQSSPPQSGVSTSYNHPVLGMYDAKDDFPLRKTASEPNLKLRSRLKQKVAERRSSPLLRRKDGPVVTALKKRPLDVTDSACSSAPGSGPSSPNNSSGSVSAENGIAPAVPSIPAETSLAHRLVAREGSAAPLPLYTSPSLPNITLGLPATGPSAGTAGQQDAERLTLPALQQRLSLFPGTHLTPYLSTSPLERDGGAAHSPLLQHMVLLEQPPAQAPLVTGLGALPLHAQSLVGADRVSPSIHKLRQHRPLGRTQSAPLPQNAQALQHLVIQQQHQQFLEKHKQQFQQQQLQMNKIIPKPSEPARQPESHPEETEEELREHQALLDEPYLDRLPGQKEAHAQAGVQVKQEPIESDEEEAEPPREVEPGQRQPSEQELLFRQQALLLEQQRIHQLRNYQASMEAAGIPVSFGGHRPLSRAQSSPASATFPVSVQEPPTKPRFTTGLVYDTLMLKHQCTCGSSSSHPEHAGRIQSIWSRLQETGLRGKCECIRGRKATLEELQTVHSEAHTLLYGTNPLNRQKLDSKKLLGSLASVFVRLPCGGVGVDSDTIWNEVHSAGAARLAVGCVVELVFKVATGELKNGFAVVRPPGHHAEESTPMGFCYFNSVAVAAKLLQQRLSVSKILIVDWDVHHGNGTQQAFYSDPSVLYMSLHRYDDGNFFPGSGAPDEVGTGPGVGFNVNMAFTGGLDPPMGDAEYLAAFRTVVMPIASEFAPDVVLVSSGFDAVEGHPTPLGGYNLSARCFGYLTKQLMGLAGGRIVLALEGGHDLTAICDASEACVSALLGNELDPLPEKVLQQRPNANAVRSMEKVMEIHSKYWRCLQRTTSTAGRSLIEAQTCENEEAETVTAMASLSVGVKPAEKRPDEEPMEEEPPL
The experiment in a line: SPR inhibition of HDAC4-NCoR1 interaction. It is filed as binding. Here is the method: as §1
C. Inhibition of HDAC4-NCoR1 interaction by TasQ. The interaction between HDAC4 and NCoR1 was studied either by injecting NCoR over immobilized HDAC4 or with an alternative orientation where HDAC4 was passed over a surface with covalently coupled NCoR1. Whether TasQ can inhibit the formation of the functional HDAC4-NCoR1 complex was tested by pre-incubation with NCoR1 or HDAC4.
To confirm that TasQ inhibits formation of the functional complex between HDAC4 and NCoR1, fl-NCoR1 in solution was injected over immobilized fl-HDAC4 after pre-incubation with TasQ in solution at concentrations ranging from 1 to 100 μM (FIG. 19). […] TasQ in solution inhibits this strong interaction by 50% at 10 μM (FIG. 20). […]

The target of test [3] is T3, fl-HDAC4 (Homo sapiens, UniProt P56524).
T3 construct: Full-length (fl) [A.A. 1-1082] recombinant human histone deacetylase 4 (rhHDAC4) protein; FLAG (N); GST (given as 'with or without'); made in house; host or cells: HEK293-T
T3 sequence (P56524 whole entry): as the sequence (P56524 whole entry, one chain of several) above
The experiment in a line: HDAC4 enzymatic assay with Lys(Tfa)-AMC substrate. It is filed as biochemical. As to the method:
HDAC4 Enzymatic Assay. HDAC4 activity of the various recombinant forms used through these studies was assayed using the small non-protein Lys(Tfa)-AMC as described previously (Bottomley et al. J. Biol. Chem. 2008, 283:26694-26704). The specificity of this assay is documented via its inhibition by a small molecule trifluoroacetylthiophene-trifluoromethylketone derivative (TFT-PIP) described previously (id.).
Thus, TasQ's inhibition of HDAC4/NCoR1 formation involves only its binding to HDAC4. To resolve whether such TasQ binding involves the ZCD vs. ZRD in HDAC4, we took advantage of the fact that while HDAC4 has only marginal deacetylase activity against acetylated lysine-containing proteins, it can deacetylate a small non-protein trifluoroacetamide substrate (a.k.a., Lys(Tfa)-AMC). This reaction is inhibited by a small molecule trifluoroacetylthiophene-trifluoromethylketone derivative [a.k.a., TFT-PIP (FIG. 16)] due to its binding to the catalytic Zn^2+ in the ZCD, which locks the ZRD in the open conformation (Bottomley 2008).

T1 sequence (O75376 whole entry, the tested form may be a part): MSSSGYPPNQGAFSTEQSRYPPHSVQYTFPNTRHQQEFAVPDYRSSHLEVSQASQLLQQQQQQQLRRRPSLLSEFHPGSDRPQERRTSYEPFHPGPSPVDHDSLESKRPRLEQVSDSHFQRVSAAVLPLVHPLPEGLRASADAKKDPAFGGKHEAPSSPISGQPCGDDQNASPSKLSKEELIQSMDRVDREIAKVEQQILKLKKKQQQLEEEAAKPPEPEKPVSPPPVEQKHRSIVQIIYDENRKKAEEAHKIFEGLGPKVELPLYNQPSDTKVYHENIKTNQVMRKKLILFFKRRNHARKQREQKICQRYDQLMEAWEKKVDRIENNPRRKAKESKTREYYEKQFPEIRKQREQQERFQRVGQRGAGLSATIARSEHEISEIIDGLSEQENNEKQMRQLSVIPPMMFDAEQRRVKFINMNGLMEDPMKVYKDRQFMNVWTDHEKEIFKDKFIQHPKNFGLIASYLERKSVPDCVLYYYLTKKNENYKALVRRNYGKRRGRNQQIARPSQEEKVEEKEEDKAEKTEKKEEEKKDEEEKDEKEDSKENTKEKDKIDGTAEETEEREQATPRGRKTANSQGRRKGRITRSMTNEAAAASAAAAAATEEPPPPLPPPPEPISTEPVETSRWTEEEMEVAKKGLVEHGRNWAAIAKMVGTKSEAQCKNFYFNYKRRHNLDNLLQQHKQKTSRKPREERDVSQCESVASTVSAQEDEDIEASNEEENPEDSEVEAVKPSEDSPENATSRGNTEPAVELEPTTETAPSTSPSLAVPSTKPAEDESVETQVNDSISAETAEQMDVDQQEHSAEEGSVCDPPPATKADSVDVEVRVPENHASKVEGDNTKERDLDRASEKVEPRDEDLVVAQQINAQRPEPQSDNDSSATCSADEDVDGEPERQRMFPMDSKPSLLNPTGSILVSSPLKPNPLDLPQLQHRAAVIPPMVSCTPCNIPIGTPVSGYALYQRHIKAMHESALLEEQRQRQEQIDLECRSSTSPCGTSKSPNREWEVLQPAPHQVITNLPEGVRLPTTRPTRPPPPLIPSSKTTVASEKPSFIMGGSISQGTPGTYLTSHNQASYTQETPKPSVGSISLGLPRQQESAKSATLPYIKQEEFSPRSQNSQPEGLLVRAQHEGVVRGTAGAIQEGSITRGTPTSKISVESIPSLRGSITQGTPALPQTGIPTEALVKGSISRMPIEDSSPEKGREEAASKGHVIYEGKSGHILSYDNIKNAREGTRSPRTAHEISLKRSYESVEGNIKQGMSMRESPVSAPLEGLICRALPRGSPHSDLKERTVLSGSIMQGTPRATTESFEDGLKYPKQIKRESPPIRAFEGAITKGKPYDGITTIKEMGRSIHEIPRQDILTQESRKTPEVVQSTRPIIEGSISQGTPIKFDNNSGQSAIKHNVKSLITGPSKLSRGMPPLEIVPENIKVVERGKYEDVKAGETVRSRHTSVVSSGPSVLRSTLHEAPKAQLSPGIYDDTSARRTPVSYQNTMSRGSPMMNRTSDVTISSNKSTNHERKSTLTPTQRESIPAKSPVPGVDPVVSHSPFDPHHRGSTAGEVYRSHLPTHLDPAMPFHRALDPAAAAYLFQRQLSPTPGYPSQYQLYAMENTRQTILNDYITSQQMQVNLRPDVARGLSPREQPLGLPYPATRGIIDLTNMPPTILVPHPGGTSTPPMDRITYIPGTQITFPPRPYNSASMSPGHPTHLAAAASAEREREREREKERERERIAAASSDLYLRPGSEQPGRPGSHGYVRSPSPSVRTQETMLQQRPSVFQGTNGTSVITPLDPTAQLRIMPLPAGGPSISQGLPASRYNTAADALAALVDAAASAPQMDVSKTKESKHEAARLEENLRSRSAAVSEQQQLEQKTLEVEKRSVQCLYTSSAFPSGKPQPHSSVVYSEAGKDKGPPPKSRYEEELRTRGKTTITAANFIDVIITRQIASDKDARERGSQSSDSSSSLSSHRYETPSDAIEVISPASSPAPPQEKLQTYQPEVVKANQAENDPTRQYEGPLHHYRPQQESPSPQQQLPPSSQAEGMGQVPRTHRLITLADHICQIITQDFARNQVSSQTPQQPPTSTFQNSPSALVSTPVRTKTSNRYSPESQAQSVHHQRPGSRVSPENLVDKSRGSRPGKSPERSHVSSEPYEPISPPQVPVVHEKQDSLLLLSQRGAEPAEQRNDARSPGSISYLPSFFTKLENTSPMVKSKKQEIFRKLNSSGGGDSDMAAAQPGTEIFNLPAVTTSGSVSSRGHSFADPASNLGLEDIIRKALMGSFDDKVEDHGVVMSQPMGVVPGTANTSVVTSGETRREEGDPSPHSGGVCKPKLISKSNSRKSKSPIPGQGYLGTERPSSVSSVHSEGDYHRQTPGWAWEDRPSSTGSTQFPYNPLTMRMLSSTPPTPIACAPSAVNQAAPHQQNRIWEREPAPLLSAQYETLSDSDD

With `COc1cccc2c1c(O)c(C(=O)N(C)c1ccc(C(F)(F)F)cc1)c(=O)n2C` [TasQ, Tasquinimod], in test [1], the “binding to immobilized fl-NCoR1 protein” value is recorded as “no detectable binding”. Besides, in test [2] (at 10 μM, read-out: inhibition of fl-NCoR1 binding to immobilized fl-HDAC4), the inhibition at 10 µM was 50%. Moreover, the IC50 in test [2] (sigmoidal dose-response fit, read-out: IC50 for competitive inhibition of fl-HDAC4 binding to immobilized NCoR1) was determined as 1.1 µM. For the same molecule, the “effect on enzymatic activity of fl-HDAC4” value in test [3] is on record as “did not inhibit”.

These data come from patent publication US20250059139A1, “COMPOUNDS FOR TREATMENT OF CANCER” (THE JOHNS HOPKINS UNIVERSITY, priority 2021, published 2025).
